According to publication PMC6522912, “Evaluation of the published kinase inhibitor set to identify multiple inhibitors of bacterial ATP-dependent mur ligases” (Journal of Enzyme Inhibition and Medicinal Chemistry, 2019):

The compounds below were run against E. coli MurC (Escherichia coli, UniProt P17952) (assay: Malachite green inhibition assay, MurC). Settings: 0.25 h, Table S1, PKIS screening; read-out: RA [%] at 100 µM MurC.
Format: biochemical

Sequence of E. coli MurC (P17952 whole entry): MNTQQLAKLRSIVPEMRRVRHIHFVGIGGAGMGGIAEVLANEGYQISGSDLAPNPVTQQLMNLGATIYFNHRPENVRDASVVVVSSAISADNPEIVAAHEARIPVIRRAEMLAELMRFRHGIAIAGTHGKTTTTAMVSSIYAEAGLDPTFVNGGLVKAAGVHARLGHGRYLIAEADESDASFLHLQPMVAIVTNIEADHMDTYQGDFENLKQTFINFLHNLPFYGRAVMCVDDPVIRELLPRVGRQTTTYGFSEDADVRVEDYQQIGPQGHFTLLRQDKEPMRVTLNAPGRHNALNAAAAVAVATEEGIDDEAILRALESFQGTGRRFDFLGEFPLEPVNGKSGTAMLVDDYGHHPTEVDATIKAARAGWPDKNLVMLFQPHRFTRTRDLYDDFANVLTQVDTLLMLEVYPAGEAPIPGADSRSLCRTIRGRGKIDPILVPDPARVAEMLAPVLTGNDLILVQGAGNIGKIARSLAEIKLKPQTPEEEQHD

SMILES	remaining activity at 100 µM [%]
CN(C)c1cc2c(Nc3ccc4c(cnn4Cc4ccccc4)c3)ncnc2cn1 [GW282974X]	77
CN(C)c1ccc2c(c1)/C(=C/Nc1ccc(S(N)(=O)=O)cc1)C(=O)N2 [GW416469X]	76
Fc1cccc(COc2ccc(Nc3ncnc4sc(-c5cccs5)cc34)cc2Cl)c1 [GW684626B]	59
NS(=O)(=O)c1ccc(-c2ccc3c(NC(=O)C4CC4)n[nH]c3c2)cc1 [SB-738482]	75
Nc1nccc(-c2c(-c3ccc(F)cc3)ncn2CCCN2CCOCC2)n1 [SB-216385]	77
NS(=O)(=O)c1cccc(-c2cc3ccncc3cc2OCc2ccccc2)c1 [GSK980961A]	80
CS(=O)(=O)CCNCc1ccc(-c2ccc3ncnc(Nc4ccc(OCc5cccc(F)c5)c(C(F)(F)F)c4)c3c2)o1 [GW576484X]	100
COc1ccc(-c2nn3ncccc3c2-c2ccnc(Nc3ccc(F)c(F)c3)n2)cc1 [GW827396X]	79
O=C1Nc2ccc(-c3cccnc3)cc2C1=Cc1cc(Br)c(O)c(Br)c1 [GW429374A]	30
COc1cc2ncn(-c3cc(OCc4cccs4)c(C(N)=O)s3)c2cc1OC [GSK312948A]	98
Cc1nn(C)c2cc(N(C)c3ccnc(Nc4cccc(S(N)(=O)=O)c4)n3)ccc12 [GW770220A]	91
CS(=O)(=O)CCNCc1nc(-c2ccc3ncnc(Nc4ccc(F)c(Cl)c4)c3c2)cs1 [GW461104A]	88
COc1cc2ncn(-c3cc(OCc4ccccc4S(C)(=O)=O)c(C#N)s3)c2cc1OC [GSK319347A]	59
COc1cc(N2CCN(C(C)C)CC2)ccc1Nc1nc(Nc2ccc(F)cc2C(=O)NC[C@@H](O)CO)c2cc[nH]c2n1 [GSK1392956A]	65
COc1cccc(/C=N/Nc2ncnc3c2cnn3-c2cccc(OC)c2)c1 [GW829874X]	69
CCn1c(-c2nonc2N)nc2c(C#CC(C)(C)O)ncc(OC[C@@H]3CCCN3)c21 [GSK614526A]	65
COc1ccc2cc(-c3c(-c4ccncc4)nc(-c4ccc(S(C)(=O)=O)cc4C)n3C)ccc2c1 [SB-633825]	36

SMILES	remaining activity at 100 µM [%]
COc1cc(/C=N/Nc2ncnc3c2cnn3C(C)C)ccc1O [GW644007X]	87
COc1ccc2cc(-c3c(-c4ccncc4)nc(-c4ccc([S+](C)[O-])cc4)n3C)ccc2c1 (stereo not shown) [SB-437013]	70
O=C(Nc1n[nH]c2cc(-c3ccc(F)cc3)ccc12)C1CC1 [SB-735467]	51
COc1cccc(-n2ncc3c(N/N=C/c4cccc(F)c4)ncnc32)c1 [GW817394X]	64
CCOc1nccc2c1nc(-c1nonc1N)n2CC [SB-737198]	73
COc1cc2ncn(-c3cc(OCc4ccccc4Cl)c(C(N)=O)s3)c2cc1OC [GW852849X]	67
c1ccc(-c2n[nH]cc2-c2ccnc(-c3ccc(OCCN4CCOCC4)cc3)c2)nc1 [GW695874X]	79
NS(=O)(=O)c1ccc(Nc2ncc(-c3ccccc3)o2)cc1 [GW572399X]	80
CS(=O)(=O)CCNCc1ccc(-c2ccc3ncnc(Nc4ccc(OCc5ccccc5)c(C(F)(F)F)c4)c3c2)o1 [GW574782A]	83
CCCN1CCC(c2ccc(Nc3nc(Nc4cc(F)ccc4C(N)=O)c4cc[nH]c4n3)c(OC)c2)CC1 [GSK1326255A]	0
c1ccc(Cc2nc3ccc(Nc4ncnc5ccccc45)cc3[nH]2)cc1 [GR269666A]	77
CN(C)C(=O)O[C@H]1CN[C@H](C#Cc2cc3ncnc(Nc4ccc(OCc5cccc(F)c5)c(Cl)c4)c3s2)C1 [GSK182497A]	43
O=C(O[C@H]1CN[C@H](C#Cc2cc3ncnc(Nc4ccc(OCc5cccc(F)c5)c(Cl)c4)c3s2)C1)N1CCOCC1 [GW869810X]	65
COC(=O)c1cncc(/C=C/c2c(C)cc(O)cc2C)c1 [GW406731X]	98
N#Cc1cccc(Nc2nccc(-c3cnn4ncccc34)n2)c1 [GW778894X]	66
COc1cccc(-n2cnc3c(N/N=C/c4ccncc4)ncnc32)c1 [GW813360X]	65

Same assay, conditions: Table S1, PKIS screening

SMILES	RA [%] at 100 µM MurC [%]
CN(C)CCOc1ccc(-c2cc(-c3ccc4c(c3)CCC4=NO)c(-c3ccncc3)o2)cc1.Cl [SB-682330-A]	31

Same assay, conditions: Table S3, aza stilbene compounds

SMILES	RA (%) MurC [%]
COC(=O)c1cncc(C=Cc2c(C)cc(O)cc2C)c1 [Compound 15]	98
CCc1cccc(CC)c1C=Cc1cncc(C(=O)NC)c1 [Compound 12]	67

These compounds were tested against E. coli MurD (Escherichia coli, UniProt P14900) (assay: biochemical). Settings: not given.
Sequence of E. coli MurD (P14900 whole entry): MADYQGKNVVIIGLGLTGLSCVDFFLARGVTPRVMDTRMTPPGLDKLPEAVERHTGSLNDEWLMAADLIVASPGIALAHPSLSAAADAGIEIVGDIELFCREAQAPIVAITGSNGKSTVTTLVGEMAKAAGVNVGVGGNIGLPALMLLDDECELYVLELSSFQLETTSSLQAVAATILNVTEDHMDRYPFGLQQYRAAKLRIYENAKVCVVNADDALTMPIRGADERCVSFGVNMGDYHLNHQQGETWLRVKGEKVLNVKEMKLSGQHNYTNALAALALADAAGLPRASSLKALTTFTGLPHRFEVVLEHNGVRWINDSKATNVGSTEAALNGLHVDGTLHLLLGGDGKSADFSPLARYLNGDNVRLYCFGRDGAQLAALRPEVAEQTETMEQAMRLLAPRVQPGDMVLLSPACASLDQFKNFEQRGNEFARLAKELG
In short: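 Reaction 15 min at 37 °C, then phosphate detected with Biomol green at 650 nm. Values are residual activity versus 5% DMSO carrier controls.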

SMILES	RA [%] at 100 µM MurD	RA (%) MurD [%]
CN(C)CCOc1ccc(-c2cc(-c3ccc4c(c3)CCC4=NO)c(-c3ccncc3)o2)cc1.Cl [SB-682330-A]	51	–
COC(=O)c1cncc(C=Cc2c(C)cc(O)cc2C)c1 [Compound 15]	–	69
CCc1cccc(CC)c1C=Cc1cncc(C(=O)NC)c1 [Compound 12]	–	74

Same assay, conditions: 0.25 h, Table S1, PKIS screening; read-out: RA [%] at 100 µM MurD

SMILES	remaining activity at 100 µM [%]
CN(C)c1cc2c(Nc3ccc4c(cnn4Cc4ccccc4)c3)ncnc2cn1 [GW282974X]	70
CN(C)c1ccc2c(c1)/C(=C/Nc1ccc(S(N)(=O)=O)cc1)C(=O)N2 [GW416469X]	89
Fc1cccc(COc2ccc(Nc3ncnc4sc(-c5cccs5)cc34)cc2Cl)c1 [GW684626B]	75
NS(=O)(=O)c1ccc(-c2ccc3c(NC(=O)C4CC4)n[nH]c3c2)cc1 [SB-738482]	83
Nc1nccc(-c2c(-c3ccc(F)cc3)ncn2CCCN2CCOCC2)n1 [SB-216385]	96
NS(=O)(=O)c1cccc(-c2cc3ccncc3cc2OCc2ccccc2)c1 [GSK980961A]	86
CS(=O)(=O)CCNCc1ccc(-c2ccc3ncnc(Nc4ccc(OCc5cccc(F)c5)c(C(F)(F)F)c4)c3c2)o1 [GW576484X]	55
COc1ccc(-c2nn3ncccc3c2-c2ccnc(Nc3ccc(F)c(F)c3)n2)cc1 [GW827396X]	61
O=C1Nc2ccc(-c3cccnc3)cc2C1=Cc1cc(Br)c(O)c(Br)c1 [GW429374A]	51
COc1cc2ncn(-c3cc(OCc4cccs4)c(C(N)=O)s3)c2cc1OC [GSK312948A]	72
Cc1nn(C)c2cc(N(C)c3ccnc(Nc4cccc(S(N)(=O)=O)c4)n3)ccc12 [GW770220A]	86
CS(=O)(=O)CCNCc1nc(-c2ccc3ncnc(Nc4ccc(F)c(Cl)c4)c3c2)cs1 [GW461104A]	73
COc1cc2ncn(-c3cc(OCc4ccccc4S(C)(=O)=O)c(C#N)s3)c2cc1OC [GSK319347A]	100
COc1cc(N2CCN(C(C)C)CC2)ccc1Nc1nc(Nc2ccc(F)cc2C(=O)NC[C@@H](O)CO)c2cc[nH]c2n1 [GSK1392956A]	76
COc1cccc(/C=N/Nc2ncnc3c2cnn3-c2cccc(OC)c2)c1 [GW829874X]	78
CCn1c(-c2nonc2N)nc2c(C#CC(C)(C)O)ncc(OC[C@@H]3CCCN3)c21 [GSK614526A]	89
COc1ccc2cc(-c3c(-c4ccncc4)nc(-c4ccc(S(C)(=O)=O)cc4C)n3C)ccc2c1 [SB-633825]	69

SMILES	remaining activity at 100 µM [%]
COc1cc(/C=N/Nc2ncnc3c2cnn3C(C)C)ccc1O [GW644007X]	91
COc1ccc2cc(-c3c(-c4ccncc4)nc(-c4ccc([S+](C)[O-])cc4)n3C)ccc2c1 (stereo not shown) [SB-437013]	58
O=C(Nc1n[nH]c2cc(-c3ccc(F)cc3)ccc12)C1CC1 [SB-735467]	75
COc1cccc(-n2ncc3c(N/N=C/c4cccc(F)c4)ncnc32)c1 [GW817394X]	81
CCOc1nccc2c1nc(-c1nonc1N)n2CC [SB-737198]	100
COc1cc2ncn(-c3cc(OCc4ccccc4Cl)c(C(N)=O)s3)c2cc1OC [GW852849X]	81
c1ccc(-c2n[nH]cc2-c2ccnc(-c3ccc(OCCN4CCOCC4)cc3)c2)nc1 [GW695874X]	80
NS(=O)(=O)c1ccc(Nc2ncc(-c3ccccc3)o2)cc1 [GW572399X]	100
CS(=O)(=O)CCNCc1ccc(-c2ccc3ncnc(Nc4ccc(OCc5ccccc5)c(C(F)(F)F)c4)c3c2)o1 [GW574782A]	60
CCCN1CCC(c2ccc(Nc3nc(Nc4cc(F)ccc4C(N)=O)c4cc[nH]c4n3)c(OC)c2)CC1 [GSK1326255A]	9
c1ccc(Cc2nc3ccc(Nc4ncnc5ccccc45)cc3[nH]2)cc1 [GR269666A]	83
CN(C)C(=O)O[C@H]1CN[C@H](C#Cc2cc3ncnc(Nc4ccc(OCc5cccc(F)c5)c(Cl)c4)c3s2)C1 [GSK182497A]	65
O=C(O[C@H]1CN[C@H](C#Cc2cc3ncnc(Nc4ccc(OCc5cccc(F)c5)c(Cl)c4)c3s2)C1)N1CCOCC1 [GW869810X]	55
COC(=O)c1cncc(/C=C/c2c(C)cc(O)cc2C)c1 [GW406731X]	69
N#Cc1cccc(Nc2nccc(-c3cnn4ncccc34)n2)c1 [GW778894X]	70
COc1cccc(-n2cnc3c(N/N=C/c4ccncc4)ncnc32)c1 [GW813360X]	84

Same assay, conditions: printed in the RA cell of Table S1; read-out: IC50 MurD

SMILES	IC50 [µM]
CCCN1CCC(c2ccc(Nc3nc(Nc4cc(F)ccc4C(N)=O)c4cc[nH]c4n3)c(OC)c2)CC1 [GSK1326255A]	39

Each compound was assayed against E. coli MurF (Escherichia coli, UniProt P11880) (assay: biochemical). Settings: 0.25 h, Table S1, PKIS screening; read-out: RA [%] at 100 µM MurF.
Sequence of E. coli MurF (P11880 whole entry): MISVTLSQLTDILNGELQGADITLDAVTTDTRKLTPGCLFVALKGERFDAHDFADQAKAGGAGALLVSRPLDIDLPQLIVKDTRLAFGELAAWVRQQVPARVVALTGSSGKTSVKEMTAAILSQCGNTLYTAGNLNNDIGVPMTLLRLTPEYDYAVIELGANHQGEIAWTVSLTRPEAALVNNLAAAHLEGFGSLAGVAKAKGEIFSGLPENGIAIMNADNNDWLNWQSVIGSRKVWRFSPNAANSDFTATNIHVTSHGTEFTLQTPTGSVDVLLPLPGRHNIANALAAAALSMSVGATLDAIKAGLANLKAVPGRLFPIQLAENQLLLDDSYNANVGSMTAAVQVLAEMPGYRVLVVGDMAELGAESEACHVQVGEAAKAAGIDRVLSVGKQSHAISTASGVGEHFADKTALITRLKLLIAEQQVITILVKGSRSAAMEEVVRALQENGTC

SMILES	remaining activity at 100 µM [%]
CN(C)c1cc2c(Nc3ccc4c(cnn4Cc4ccccc4)c3)ncnc2cn1 [GW282974X]	55
CN(C)c1ccc2c(c1)/C(=C/Nc1ccc(S(N)(=O)=O)cc1)C(=O)N2 [GW416469X]	79
Fc1cccc(COc2ccc(Nc3ncnc4sc(-c5cccs5)cc34)cc2Cl)c1 [GW684626B]	100
NS(=O)(=O)c1ccc(-c2ccc3c(NC(=O)C4CC4)n[nH]c3c2)cc1 [SB-738482]	83
Nc1nccc(-c2c(-c3ccc(F)cc3)ncn2CCCN2CCOCC2)n1 [SB-216385]	98
NS(=O)(=O)c1cccc(-c2cc3ccncc3cc2OCc2ccccc2)c1 [GSK980961A]	66
CS(=O)(=O)CCNCc1ccc(-c2ccc3ncnc(Nc4ccc(OCc5cccc(F)c5)c(C(F)(F)F)c4)c3c2)o1 [GW576484X]	100
COc1ccc(-c2nn3ncccc3c2-c2ccnc(Nc3ccc(F)c(F)c3)n2)cc1 [GW827396X]	61
O=C1Nc2ccc(-c3cccnc3)cc2C1=Cc1cc(Br)c(O)c(Br)c1 [GW429374A]	16
COc1cc2ncn(-c3cc(OCc4cccs4)c(C(N)=O)s3)c2cc1OC [GSK312948A]	79
Cc1nn(C)c2cc(N(C)c3ccnc(Nc4cccc(S(N)(=O)=O)c4)n3)ccc12 [GW770220A]	74
CS(=O)(=O)CCNCc1nc(-c2ccc3ncnc(Nc4ccc(F)c(Cl)c4)c3c2)cs1 [GW461104A]	84
COc1cc2ncn(-c3cc(OCc4ccccc4S(C)(=O)=O)c(C#N)s3)c2cc1OC [GSK319347A]	75
COc1cc(N2CCN(C(C)C)CC2)ccc1Nc1nc(Nc2ccc(F)cc2C(=O)NC[C@@H](O)CO)c2cc[nH]c2n1 [GSK1392956A]	90
COc1cccc(/C=N/Nc2ncnc3c2cnn3-c2cccc(OC)c2)c1 [GW829874X]	85
CCn1c(-c2nonc2N)nc2c(C#CC(C)(C)O)ncc(OC[C@@H]3CCCN3)c21 [GSK614526A]	100
COc1ccc2cc(-c3c(-c4ccncc4)nc(-c4ccc(S(C)(=O)=O)cc4C)n3C)ccc2c1 [SB-633825]	56

SMILES	remaining activity at 100 µM [%]
COc1cc(/C=N/Nc2ncnc3c2cnn3C(C)C)ccc1O [GW644007X]	78
COc1ccc2cc(-c3c(-c4ccncc4)nc(-c4ccc([S+](C)[O-])cc4)n3C)ccc2c1 (stereo not shown) [SB-437013]	70
O=C(Nc1n[nH]c2cc(-c3ccc(F)cc3)ccc12)C1CC1 [SB-735467]	103
COc1cccc(-n2ncc3c(N/N=C/c4cccc(F)c4)ncnc32)c1 [GW817394X]	46
CCOc1nccc2c1nc(-c1nonc1N)n2CC [SB-737198]	100
COc1cc2ncn(-c3cc(OCc4ccccc4Cl)c(C(N)=O)s3)c2cc1OC [GW852849X]	85
c1ccc(-c2n[nH]cc2-c2ccnc(-c3ccc(OCCN4CCOCC4)cc3)c2)nc1 [GW695874X]	91
NS(=O)(=O)c1ccc(Nc2ncc(-c3ccccc3)o2)cc1 [GW572399X]	74
CS(=O)(=O)CCNCc1ccc(-c2ccc3ncnc(Nc4ccc(OCc5ccccc5)c(C(F)(F)F)c4)c3c2)o1 [GW574782A]	100
CCCN1CCC(c2ccc(Nc3nc(Nc4cc(F)ccc4C(N)=O)c4cc[nH]c4n3)c(OC)c2)CC1 [GSK1326255A]	4
c1ccc(Cc2nc3ccc(Nc4ncnc5ccccc45)cc3[nH]2)cc1 [GR269666A]	96
CN(C)C(=O)O[C@H]1CN[C@H](C#Cc2cc3ncnc(Nc4ccc(OCc5cccc(F)c5)c(Cl)c4)c3s2)C1 [GSK182497A]	76
O=C(O[C@H]1CN[C@H](C#Cc2cc3ncnc(Nc4ccc(OCc5cccc(F)c5)c(Cl)c4)c3s2)C1)N1CCOCC1 [GW869810X]	77
COC(=O)c1cncc(/C=C/c2c(C)cc(O)cc2C)c1 [GW406731X]	81
N#Cc1cccc(Nc2nccc(-c3cnn4ncccc34)n2)c1 [GW778894X]	68
COc1cccc(-n2cnc3c(N/N=C/c4ccncc4)ncnc32)c1 [GW813360X]	81

Same assay, conditions: Table S1, PKIS screening

SMILES	RA [%] at 100 µM MurF [%]
CN(C)CCOc1ccc(-c2cc(-c3ccc4c(c3)CCC4=NO)c(-c3ccncc3)o2)cc1.Cl [SB-682330-A]	57

Same assay, conditions: Table S3, aza stilbene compounds

SMILES	RA (%) MurF [%]
COC(=O)c1cncc(C=Cc2c(C)cc(O)cc2C)c1 [Compound 15]	81
CCc1cccc(CC)c1C=Cc1cncc(C(=O)NC)c1 [Compound 12]	76
